US20260152498A1, “4,5,6,7-TETRAHYDRO-1H-PYRAZOLO[4,3-c]PYRIDINE COMPOUNDS AND DERIVATIVES AS USP1 INHIBITORS” (EXELIXIS, INC., priority 2022, published 2026)

Experiments:
[1] = molecular target: T1, USP1-UAF1 complex (Homo sapiens, UniProt O94782); settings: 1.2 µM
Experimental: (§1) Biochemical Assay: The compounds were evaluated for their potential to inhibit USP1-UAF1 complex (Boston Biochem, Catalog: E568-050) using a fluorescence-based assay. The final concentrations of USP1-UAF1 complex protein and substrate Ubiquitin-Rhodamine-110 (R&D systems, Catalog U-555-050) used in the assay were 0.45 and 150 nM respectively. 50 mM HEPES pH. 7.5, 100 mM NaCl, 0.5 mM EDTA, 1 mM TCEP, 10% BSA, 0.01% Tween 20 buffer was used in the assay. The total assay volume was 20 μL. […] The final DMSO concentration in the assay was 1%. The compounds were pre-incubated with USP1-UAF1 complex at 25° C. for 15 min. After preincubation, required concentration of substrate was added and incubated at 25° C. for 60 min. Fluorescence at Excitation: 485 nm, Emission: 535 nm was measured in Victor-5 from Perkin Elmer.
(§2) To determine IC50 values, dose response curves were generated by plotting percentage inhibition as a function of inhibitor concentration and the data was fitted to sigmoidal non-linear regression equation (variable slope) using Graph Pad prism software V8.
(§3) The compounds were screened by the above-mentioned assay procedure.

[2] = molecular target: T1, USP1-UAF1 complex; assay: biochemical
Experimental: as §1, §2, §3

T1 sequence (O94782 whole entry): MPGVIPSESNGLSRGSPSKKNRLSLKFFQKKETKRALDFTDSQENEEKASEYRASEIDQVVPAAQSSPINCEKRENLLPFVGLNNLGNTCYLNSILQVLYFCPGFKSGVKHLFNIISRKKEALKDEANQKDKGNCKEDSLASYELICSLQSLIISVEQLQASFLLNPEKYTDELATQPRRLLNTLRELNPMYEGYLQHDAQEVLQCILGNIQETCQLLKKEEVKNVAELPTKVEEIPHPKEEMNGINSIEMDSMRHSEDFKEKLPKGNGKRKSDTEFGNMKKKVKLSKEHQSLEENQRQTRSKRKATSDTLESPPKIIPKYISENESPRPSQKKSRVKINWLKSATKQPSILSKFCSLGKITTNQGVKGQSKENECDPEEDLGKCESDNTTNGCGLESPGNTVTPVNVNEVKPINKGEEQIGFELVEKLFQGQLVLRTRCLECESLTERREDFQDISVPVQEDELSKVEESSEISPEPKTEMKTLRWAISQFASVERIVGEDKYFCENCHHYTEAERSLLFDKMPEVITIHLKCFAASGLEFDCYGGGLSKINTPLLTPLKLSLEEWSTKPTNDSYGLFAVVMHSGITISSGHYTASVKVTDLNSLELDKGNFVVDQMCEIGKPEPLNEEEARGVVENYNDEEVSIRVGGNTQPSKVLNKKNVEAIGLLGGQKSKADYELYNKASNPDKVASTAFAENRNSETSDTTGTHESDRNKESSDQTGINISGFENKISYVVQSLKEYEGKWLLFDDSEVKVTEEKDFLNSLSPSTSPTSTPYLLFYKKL
T1 sequence (Q8TAF3 whole entry partner): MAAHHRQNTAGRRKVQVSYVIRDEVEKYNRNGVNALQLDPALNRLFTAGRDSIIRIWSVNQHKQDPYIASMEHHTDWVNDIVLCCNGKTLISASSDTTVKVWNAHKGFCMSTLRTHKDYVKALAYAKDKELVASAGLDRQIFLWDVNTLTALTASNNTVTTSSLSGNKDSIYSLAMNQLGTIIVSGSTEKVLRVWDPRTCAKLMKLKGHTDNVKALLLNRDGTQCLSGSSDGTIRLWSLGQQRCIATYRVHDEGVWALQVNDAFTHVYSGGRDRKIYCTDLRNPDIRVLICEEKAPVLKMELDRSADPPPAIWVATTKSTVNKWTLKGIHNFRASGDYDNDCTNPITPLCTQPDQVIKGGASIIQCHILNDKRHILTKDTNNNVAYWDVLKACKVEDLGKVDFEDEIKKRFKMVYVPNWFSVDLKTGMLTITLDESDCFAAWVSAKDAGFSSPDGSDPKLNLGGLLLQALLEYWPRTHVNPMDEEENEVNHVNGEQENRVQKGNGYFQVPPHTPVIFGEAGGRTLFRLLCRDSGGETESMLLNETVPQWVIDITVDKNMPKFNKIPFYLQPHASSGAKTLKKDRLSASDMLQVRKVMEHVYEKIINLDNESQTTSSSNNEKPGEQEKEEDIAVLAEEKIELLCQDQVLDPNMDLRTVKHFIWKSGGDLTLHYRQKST

Row | Structure (SMILES) | inhibition [1] [%] | IC50 [2] [nM]
1 | CCn1nc(-c2c(OC)ncnc2C2CC2)c2c1CCN(c1ccc(-c3nc(C(F)(F)F)cn3C)cn1)C2 [Compound 26, 3-(4-cyclopropyl-6-methoxypyrimidin-5-yl)-1-ethyl-5-(5-(1-methyl-4-(trifluoromethyl)-1H-imidazol-2-yl)pyridin-2-yl)-4,5,6,7-tetrahydro-1H-pyrazolo[4,3-c]pyridine] | 90 | > 100
2 | COc1ncnc(C2CC2)c1-c1nn(C(C)C)c2c1CN(c1ccc(-c3nc(C(F)(F)F)cn3C)cc1)CC2 [Compound 27, 3-(4-cyclopropyl-6-methoxypyrimidin-5-yl)-1-isopropyl-5-(4-(1-methyl-4-(trifluoromethyl)-1H-imidazol-2-yl)phenyl)-4,5,6,7-tetrahydro-1H-pyrazolo[4,3-c]pyridine] | 98 | < 50
3 | COc1ncnc(C2CC2)c1-c1nn(C(C)C)c2c1CN(c1ccc(-c3nc(C(F)(F)F)cn3C)nc1)CC2 [Compound 28, 3-(4-cyclopropyl-6-methoxypyrimidin-5-yl)-1-isopropyl-5-(6-(1-methyl-4-(trifluoromethyl)-1H-imidazol-2-yl)pyridin-3-yl)-4,5,6,7-tetrahydro-1H-pyrazolo[4,3-c]pyridine] | 90 | > 100
4 | COc1ncnc(C2CC2)c1-c1nn(C(C)C)c2c1CN(c1ccc(-c3nc(C(F)(F)F)cn3C)cn1)CC2 [Compound 29, 3-(4-cyclopropyl-6-methoxypyrimidin-5-yl)-1-isopropyl-5-(5-(1-methyl-4-(trifluoromethyl)-1H-imidazol-2-yl)pyridin-2-yl)-4,5,6,7-tetrahydro-1H-pyrazolo[4,3-c]pyridine] | 90 | > 100
5 | COc1ncnc(C2CC2)c1-c1nn(C2CC2)c2c1CN(c1ccc(-c3nc(C(F)(F)F)cn3C)cc1)CC2 [Compound 30, 1-cyclopropyl-3-(4-cyclopropyl-6-methoxypyrimidin-5-yl)-5-(4-(1-methyl-4-(trifluoromethyl)-1H-imidazol-2-yl)phenyl)-4,5,6,7-tetrahydro-1H-pyrazolo[4,3-c]pyridine] | 98 | < 50
6 | COc1ncnc(C2CC2)c1-c1nn(C2CC2)c2c1CN(c1ccc(-c3nc(C(F)(F)F)cn3C)nc1)CC2 [Compound 31, 1-cyclopropyl-3-(4-cyclopropyl-6-methoxypyrimidin-5-yl)-5-(6-(1-methyl-4-(trifluoromethyl)-1H-imidazol-2-yl)pyridin-3-yl)-4,5,6,7-tetrahydro-1H-pyrazolo[4,3-c]pyridine] | 86 | > 100
7 | COc1ncnc(C2CC2)c1-c1nn(C2CC2)c2c1CN(c1ccc(-c3nc(C(F)(F)F)cn3C)cn1)CC2 [Compound 32, 1-cyclopropyl-3-(4-cyclopropyl-6-methoxypyrimidin-5-yl)-5-(5-(1-methyl-4-(trifluoromethyl)-1H-imidazol-2-yl)pyridin-2-yl)-4,5,6,7-tetrahydro-1H-pyrazolo[4,3-c]pyridine] | 89 | > 100
8 | COc1ncnc(C2CC2)c1-c1nn(C2CCC2)c2c1CN(c1ccc(-c3nc(C(F)(F)F)cn3C)cc1)CC2 [Compound 33, 1-cyclobutyl-3-(4-cyclopropyl-6-methoxypyrimidin-5-yl)-5-(4-(1-methyl-4-(trifluoromethyl)-1H-imidazol-2-yl)phenyl)-4,5,6,7-tetrahydro-1 H-pyrazolo[4,3-c]pyridine] | 90 | 50 to 100
9 | COc1ncnc(C2CC2)c1-c1nn(C2CCC2)c2c1CN(c1ccc(-c3nc(C(F)(F)F)cn3C)nc1)CC2 [Compound 34, 1-cyclobutyl-3-(4-cyclopropyl-6-methoxypyrimidin-5-yl)-5-(6-(1-methyl-4-(trifluoromethyl)-1H-imidazol-2-yl)pyridin-3-yl)-4,5,6,7-tetrahydro-1H-pyrazolo[4,3-c]pyridine] | 75 | > 100
10 | COc1ncnc(C2CC2)c1-c1nn(C2CCC2)c2c1CN(c1ccc(-c3nc(C(F)(F)F)cn3C)cn1)CC2 [Compound 35, 1-cyclobutyl-3-(4-cyclopropyl-6-methoxypyrimidin-5-yl)-5-(5-(1-methyl-4-(trifluoromethyl)-1H-imidazol-2-yl)pyridin-2-yl)-4,5,6,7-tetrahydro-1H-pyrazolo[4,3-c]pyridine] | 76 | > 100

Results, then the molecule that gave them:

Row | inhibition [1] [%] | IC50 [2] [nM] | Structure (SMILES)
11 | 99 | < 50 | COc1ncnc(C2CC2)c1-c1nn(Cc2ccccc2)c2c1CN(c1ccc(-c3nc(C(F)(F)F)cn3C)cc1)CC2 [Compound 36, 1-benzyl-3-(4-cyclopropyl-6-methoxypyrimidin-5-yl)-5-(4-(1-methyl-4-(trifluoromethyl)-1H-imidazol-2-yl)phenyl)-4,5,6,7-tetrahydro-1H-pyrazolo[4,3-c]pyridine]
12 | 98 | 50 to 100 | COc1ncnc(C2CC2)c1-c1nn(Cc2ccccc2)c2c1CN(c1ccc(-c3nc(C(F)(F)F)cn3C)cn1)CC2 [Compound 37, 1-benzyl-3-(4-cyclopropyl-6-methoxypyrimidin-5-yl)-5-(5-(1-methyl-4-(trifluoromethyl)-1H-imidazol-2-yl)pyridin-2-yl)-4,5,6,7-tetrahydro-1H-pyrazolo[4,3-c]pyridine]
13 | 99 | < 50 | COc1ncnc(C2CC2)c1-c1nn(C)c2c1CN(c1ccc(-c3nc(C(F)(F)F)cn3C)cc1)CC2C (stereo not shown) [Compound 38, 3-(4-cyclopropyl-6-methoxypyrimidin-5-yl)-1,7-dimethyl-5-(4-(1-methyl-4-(trifluoromethyl)-1H-imidazol-2-yl)phenyl)-4,5,6,7-tetrahydro-1H-pyrazolo[4,3-c]pyridine]
14 | 98 | 50 to 100 | COc1ncnc(C2CC2)c1-c1nn(C)c2c1CN(c1ccc(-c3nc(C(F)(F)F)cn3C)nc1)CC2C (stereo not shown) [Compound 39, 3-(4-cyclopropyl-6-methoxypyrimidin-5-yl)-1,7-dimethyl-5-(6-(1-methyl-4-(trifluoromethyl)-1H-imidazol-2-yl)pyridin-3-yl)-4,5,6,7-tetrahydro-1H-pyrazolo[4,3-c]pyridine]
15 | 97 | 50 to 100 | COc1ncnc(C2CC2)c1-c1nn(C)c2c1CN(c1ccc(-c3nc(C(F)(F)F)cn3C)cn1)CC2C (stereo not shown) [Compound 40, 3-(4-cyclopropyl-6-methoxypyrimidin-5-yl)-1,7-dimethyl-5-(5-(1-methyl-4-(trifluoromethyl)-1H-imidazol-2-yl)pyridin-2-yl)-4,5,6,7-tetrahydro-1H-pyrazolo[4,3-c]pyridine]
16 | 100 | < 50 | COc1ncnc(C2CC2)c1-c1nn(C)c2c1CN(c1ccc(-c3nc(C(F)(F)F)cn3C)cc1)CC2(C)C [Compound 41, 3-(4-cyclopropyl-6-methoxypyrimidin-5-yl)-1,7,7-trimethyl-5-(4-(1-methyl-4-(trifluoromethyl)-1H-imidazol-2-yl)phenyl)-4,5,6,7-tetrahydro-1H-pyrazolo[4,3-c]pyridine]
17 | 96 | 50 to 100 | COc1ncnc(C2CC2)c1-c1nn(C)c2c1CN(c1ccc(-c3nc(C(F)(F)F)cn3C)nc1)CC2(C)C [Compound 42, 3-(4-cyclopropyl-6-methoxypyrimidin-5-yl)-1,7,7-trimethyl-5-(6-(1-methyl-4-(trifluoromethyl)-1H-imidazol-2-yl)pyridin-3-yl)-4,5,6,7-tetrahydro-1H-pyrazolo[4,3-c]pyridine]
18 | 98 | 50 to 100 | COc1ncnc(C2CC2)c1-c1nn(C)c2c1CN(c1ccc(-c3nc(C(F)(F)F)cn3C)cn1)CC2(C)C [Compound 43, 3-(4-cyclopropyl-6-methoxypyrimidin-5-yl)-1,7,7-trimethyl-5-(5-(1-methyl-4-(trifluoromethyl)-1H-imidazol-2-yl)pyridin-2-yl)-4,5,6,7-tetrahydro-1H-pyrazolo[4,3-c]pyridine]
19 | 100 | < 50 | COc1ncnc(C2CC2)c1-c1nn(C)c2c1CN(c1ccc(-c3nc(C(F)(F)F)cn3C)c(F)c1)CC2 [Compound 44, 3-(4-cyclopropyl-6-methoxypyrimidin-5-yl)-5-(3-fluoro-4-(1-methyl-4-(trifluoromethyl)-1H-imidazol-2-yl)phenyl)-1-methyl-4,5,6,7-tetrahydro-1H-pyrazolo[4,3-c]pyridine]
20 | 98 | < 50 | COc1ncnc(C2CC2)c1-c1nn(C)c2c1CN(c1ccc(-c3nc(C(F)(F)F)cn3C)c(Cl)c1)CC2 [Compound 45, 5-(3-chloro-4-(1-methyl-4-(trifluoromethyl)-1H-imidazol-2-yl)phenyl)-3-(4-cyclopropyl-6-methoxypyrimidin-5-yl)-1-methyl-4,5,6,7-tetrahydro-1H-pyrazolo[4,3-c]pyridine]
21 | 96 | 50 to 100 | COc1cc(N2CCc3c(c(-c4c(OC)ncnc4C4CC4)nn3C)C2)ccc1-c1nc(C(F)(F)F)cn1C [Compound 46, 3-(4-cyclopropyl-6-methoxypyrimidin-5-yl)-5-(3-methoxy-4-(1-methyl-4-(trifluoromethyl)-1H-imidazol-2-yl)phenyl)-1-methyl-4,5,6,7-tetrahydro-1H-pyrazolo[4,3-c]pyridine]
22 | 95 | 50 to 100 | CCOc1cc(N2CCc3c(c(-c4c(OC)ncnc4C4CC4)nn3C)C2)ccc1-c1nc(C(F)(F)F)cn1C [Compound 47, 3-(4-cyclopropyl-6-methoxypyrimidin-5-yl)-5-(3-ethoxy-4-(1-methyl-4-(trifluoromethyl)-1H-imidazol-2-yl)phenyl)-1-methyl-4,5,6,7-tetrahydro-1H-pyrazolo[4,3-c]pyridine]
23 | 97 | 50 to 100 | COc1ncnc(C2CC2)c1-c1nn(C)c2c1CN(c1ccc(-c3nc(C(F)(F)F)cn3C)c(N(C)C)c1)CC2 [Compound 48, 5-(3-(4-cyclopropyl-6-methoxypyrimidin-5-yl)-1-methyl-1,4,6,7-tetrahydro-5H-pyrazolo[4,3-c]pyridin-5-yl)-N,N-dimethyl-2-(1-methyl-4-(trifluoromethyl)-1H-imidazol-2-yl)aniline]
